Test system: stereotyped gnawing behaviour in mice induced by methylphenidate
Experiment: methylphenidate induced gnawing test in mice
Type: in vivo
Conditions: Mus musculus

SMILES	ED50 [mg/kg]
COCOc1cc2c(cc1Cl)CCN(C)CC2c1cccc2ccoc12 (single isomer, unassigned; (+)) [Example 1, (+)-5-(7-benzofuranyl)-8-chloro-7-methoxymethyloxy-3-methyl-2,3,4,5-tetrahydro-1H-3-benzazepine]	2
COCOc1cc2c(cc1Cl)CCN(C)CC2c1cccc2c1OCC2 (single isomer, unassigned; (+)) [Example 2, (+)-8-chloro-5-(2,3-dihydro-benzofuran-7-yl)-7-methoxy-methyloxy-3-methyl-2,3,4,5-tetrahydro-1H-3-benzazepine]	5.4

Source: patent US5079243A, “Benzazepines” (Novo Nordisk A/S, priority 1989, dated 1992)
